# Measurements published in ChEMBL document CHEMBL1201862, “PubChem BioAssay data set” (2004).
# Activity calls are given as the source filed them.
# Legend:
# [1] = biological target: T1, Trace amine-associated receptor 1 (Homo sapiens, UniProt Q96RJ0); test: Counterscreen for agonists of the human trace amine associated receptor 1 (hTAAR1): Fluorescence-based cell-based high throughput dose response assay to identify hTAAR1 agonist that also desensitize TAAR1 receptor response.; type: functional
# T1 sequence (Q96RJ0 whole entry): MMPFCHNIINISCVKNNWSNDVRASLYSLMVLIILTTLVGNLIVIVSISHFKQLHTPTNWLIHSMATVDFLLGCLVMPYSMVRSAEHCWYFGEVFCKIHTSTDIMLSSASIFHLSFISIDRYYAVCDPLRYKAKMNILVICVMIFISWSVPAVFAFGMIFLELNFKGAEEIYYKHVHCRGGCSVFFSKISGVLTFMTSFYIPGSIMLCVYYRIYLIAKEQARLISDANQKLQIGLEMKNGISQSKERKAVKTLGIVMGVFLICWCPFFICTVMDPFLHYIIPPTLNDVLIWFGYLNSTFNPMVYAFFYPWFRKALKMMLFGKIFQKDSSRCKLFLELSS
# cells [2] = type: functional, cell-based
# cells [3] = type: functional, cell-based; remark: listed apart in the source
# [4] = biological target: T1, Trace amine-associated receptor 1; test: Fluorescence-based cell-based high throughput dose response assay to identify agonists of the human trace amine associated receptor 1 (TAAR1).; type: functional
# Beta-galactosidase [5] = biological target: T2, Beta-galactosidase (Escherichia coli, UniProt Q8VNN2); test: Dose response counterscreen for EBI2 assay utilizing the enzyme, b-galactosidase.; type: functional
# T2 sequence (Q8VNN2 whole entry): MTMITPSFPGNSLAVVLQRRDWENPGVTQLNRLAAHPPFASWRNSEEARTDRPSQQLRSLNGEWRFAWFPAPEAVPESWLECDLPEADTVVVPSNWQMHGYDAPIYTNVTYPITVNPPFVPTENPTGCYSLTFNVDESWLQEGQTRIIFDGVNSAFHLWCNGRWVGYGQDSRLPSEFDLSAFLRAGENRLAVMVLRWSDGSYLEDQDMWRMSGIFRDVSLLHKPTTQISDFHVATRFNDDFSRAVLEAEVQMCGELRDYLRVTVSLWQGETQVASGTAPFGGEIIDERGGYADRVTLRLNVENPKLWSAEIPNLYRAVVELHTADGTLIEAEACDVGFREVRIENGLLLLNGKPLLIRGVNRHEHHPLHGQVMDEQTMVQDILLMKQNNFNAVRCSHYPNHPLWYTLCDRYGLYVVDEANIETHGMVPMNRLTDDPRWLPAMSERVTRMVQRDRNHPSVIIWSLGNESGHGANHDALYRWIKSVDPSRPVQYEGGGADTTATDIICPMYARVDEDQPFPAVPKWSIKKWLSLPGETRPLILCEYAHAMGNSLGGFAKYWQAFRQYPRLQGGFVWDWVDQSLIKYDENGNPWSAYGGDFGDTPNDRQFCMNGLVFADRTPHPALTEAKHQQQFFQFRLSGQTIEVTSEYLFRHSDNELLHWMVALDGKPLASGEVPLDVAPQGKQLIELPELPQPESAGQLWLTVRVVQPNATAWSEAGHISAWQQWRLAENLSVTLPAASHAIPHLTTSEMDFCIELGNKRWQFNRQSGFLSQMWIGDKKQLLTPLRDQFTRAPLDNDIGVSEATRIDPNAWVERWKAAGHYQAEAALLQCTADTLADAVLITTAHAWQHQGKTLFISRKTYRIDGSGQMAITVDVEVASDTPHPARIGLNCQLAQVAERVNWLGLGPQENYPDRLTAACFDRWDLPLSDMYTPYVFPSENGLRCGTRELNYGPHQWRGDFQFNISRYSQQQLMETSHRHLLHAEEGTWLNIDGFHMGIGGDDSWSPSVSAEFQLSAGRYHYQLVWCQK
# [6] = biological target: RNA-editing ligase 1, mitochondrial (Trypanosoma brucei brucei, UniProt P86926); test: inhibition of trypanosome RNA editing ligase – biochemical, fluorescence, Trypanosoma brucei, dose response (AID 1117295); type: functional
# Chain of RNA-editing ligase 1, mitochondrial (P86926 whole entry): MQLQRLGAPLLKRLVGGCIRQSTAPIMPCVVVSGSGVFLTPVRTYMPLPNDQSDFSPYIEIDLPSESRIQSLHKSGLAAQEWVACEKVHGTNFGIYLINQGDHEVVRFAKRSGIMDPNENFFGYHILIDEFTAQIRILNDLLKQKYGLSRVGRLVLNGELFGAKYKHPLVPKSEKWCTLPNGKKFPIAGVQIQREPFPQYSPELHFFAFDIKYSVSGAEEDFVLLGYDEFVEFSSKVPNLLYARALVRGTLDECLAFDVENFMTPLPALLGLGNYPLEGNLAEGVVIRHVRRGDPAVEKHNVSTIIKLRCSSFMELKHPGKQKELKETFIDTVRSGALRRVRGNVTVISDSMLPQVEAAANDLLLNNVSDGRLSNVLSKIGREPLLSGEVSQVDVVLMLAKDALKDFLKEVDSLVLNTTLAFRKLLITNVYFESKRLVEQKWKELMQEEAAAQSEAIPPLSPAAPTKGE
# Kallikrein-7 = Kallikrein-7 (Homo sapiens, UniProt P49862); test: Fluorescence Intensity-based biochemical primary high throughput dose response assay to identify activators of kallikrein-7 (K7) zymogen.
# Chain of Kallikrein-7 (P49862 whole entry): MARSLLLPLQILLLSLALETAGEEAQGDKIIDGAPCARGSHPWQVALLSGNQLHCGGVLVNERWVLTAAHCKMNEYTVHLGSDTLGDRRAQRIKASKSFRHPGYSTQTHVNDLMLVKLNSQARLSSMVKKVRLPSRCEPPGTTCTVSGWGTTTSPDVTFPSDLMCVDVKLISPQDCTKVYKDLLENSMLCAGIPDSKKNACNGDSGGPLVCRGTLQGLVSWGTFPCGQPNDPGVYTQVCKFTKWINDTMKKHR
# Albumin = Albumin (Bos taurus, UniProt P02769); test: Counterscreen for inhibitors of T-cell receptor (TCR)-CD3 interaction: Fluorescence-based biochemical high throughput dose response assay to identify inhibitors of T-cell receptor (TCR)-CD3 interaction using a TAMRA-labeled BSA probe.; type: functional
# Chain of Albumin (P02769 whole entry): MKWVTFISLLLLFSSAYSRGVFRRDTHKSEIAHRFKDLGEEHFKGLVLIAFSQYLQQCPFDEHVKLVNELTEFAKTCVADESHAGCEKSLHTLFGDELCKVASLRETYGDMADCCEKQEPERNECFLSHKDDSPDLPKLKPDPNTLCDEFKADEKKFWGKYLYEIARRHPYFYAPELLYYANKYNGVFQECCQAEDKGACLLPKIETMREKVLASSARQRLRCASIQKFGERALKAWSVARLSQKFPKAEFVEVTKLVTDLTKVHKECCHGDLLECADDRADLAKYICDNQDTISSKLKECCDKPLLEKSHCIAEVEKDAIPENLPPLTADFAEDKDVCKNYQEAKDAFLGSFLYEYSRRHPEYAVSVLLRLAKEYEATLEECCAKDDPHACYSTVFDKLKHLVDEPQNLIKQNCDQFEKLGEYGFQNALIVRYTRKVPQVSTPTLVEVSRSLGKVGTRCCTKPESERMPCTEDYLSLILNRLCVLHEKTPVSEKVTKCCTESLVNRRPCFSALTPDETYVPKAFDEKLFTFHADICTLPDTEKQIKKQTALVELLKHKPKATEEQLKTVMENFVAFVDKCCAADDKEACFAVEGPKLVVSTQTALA
# [7] = Luminescence Cell-Based Dose Retest to Confirm Inhibitors of Cancer Stem Cells. [Related pubchem assays (depositor defined):AID2717, AID2721]; type: functional; details: Homo sapiens
# [8] = rescue of ΔF508 CFTR function, airway epithelium – human bronchial epithelial cells, plate reader, cherry-pick, two tests, dose response (AID 743267); type: functional, cell-based
# [9] = biological target: T3, Type-1 angiotensin II receptor (Homo sapiens, UniProt P30556); test: antagonism of angiotensin II type 1 receptor – cell-based, uHTS hits, selectivity assay for APJ receptor antagonist project, dose response (AID 463214); type: functional;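 note: antagonist potency against angiotensin II stimulated AT1 response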
# T3 sequence (P30556 whole entry): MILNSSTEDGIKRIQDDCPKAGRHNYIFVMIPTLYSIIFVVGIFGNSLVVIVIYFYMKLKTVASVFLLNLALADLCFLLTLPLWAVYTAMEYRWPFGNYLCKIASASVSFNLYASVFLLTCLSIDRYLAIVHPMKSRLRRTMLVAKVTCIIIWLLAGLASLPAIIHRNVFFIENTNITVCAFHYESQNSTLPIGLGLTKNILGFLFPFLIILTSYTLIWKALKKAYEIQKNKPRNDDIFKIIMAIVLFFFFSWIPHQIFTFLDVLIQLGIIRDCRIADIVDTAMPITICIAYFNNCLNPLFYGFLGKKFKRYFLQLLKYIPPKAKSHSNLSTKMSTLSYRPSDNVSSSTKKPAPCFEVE
# Beta-galactosidase [10] = biological target: T2, Beta-galactosidase; test: PubChem AID 485352; type: functional
# [11] = Counterscreen for activators of the function of SWI/SNF related, matrix associated, actin dependent regulator of chromatin, subfamily a, member 2 (SMARCA2, BRM): Luminescence-based cell-based high throughput dose response assay to identify non-selective compounds using the VP16 reporter assay.; type: functional
# [12] = biological target: T4, Microphthalmia-associated transcription factor (Homo sapiens, UniProt O75030); test: reducers of TRPM1 reporter luminescence, concentration series – cell-based, SK-MEL-5, cherry-picked, set 3, MITF inhibitor project, dose response (AID 493073); type: functional;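 note: SK-MEL-5 melanoma cells with luciferase driven by the MITF target TRPM1 promoter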
# T4 sequence (O75030 whole entry): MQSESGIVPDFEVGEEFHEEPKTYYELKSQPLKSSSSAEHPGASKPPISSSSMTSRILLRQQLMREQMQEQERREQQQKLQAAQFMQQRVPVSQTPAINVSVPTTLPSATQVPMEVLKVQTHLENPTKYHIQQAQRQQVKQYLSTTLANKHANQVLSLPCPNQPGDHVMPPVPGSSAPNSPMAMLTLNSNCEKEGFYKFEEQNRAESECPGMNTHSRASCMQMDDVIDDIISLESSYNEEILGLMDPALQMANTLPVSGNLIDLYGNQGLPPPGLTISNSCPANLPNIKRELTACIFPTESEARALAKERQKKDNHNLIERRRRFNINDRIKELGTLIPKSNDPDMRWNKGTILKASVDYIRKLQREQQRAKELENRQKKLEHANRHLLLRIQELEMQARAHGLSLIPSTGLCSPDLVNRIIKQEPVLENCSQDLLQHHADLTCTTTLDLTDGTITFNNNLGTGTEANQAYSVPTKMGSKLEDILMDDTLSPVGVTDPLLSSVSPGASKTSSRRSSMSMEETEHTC
# [13] = biological target: SWI/SNF-related matrix-associated actin-dependent regulator of chromatin subfamily A member 2 (Homo sapiens, UniProt P51531); test: Luminescence-based cell-based high throughput dose response assay to identify activators of the function of SWI/SNF related, matrix associated, actin dependent regulator of chromatin, subfamily a, member 2 (SMARCA2, BRM).; type: functional
# cells [14] = test: cells
# [15] = biological target: Oxysterols receptor LXR-beta (Homo sapiens, UniProt P55055); type: functional, cell-based;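 note: Cell-based luminescence dose-response assay of agonist activity at LXR, run as a confirmatory counterscreen to a daf-12 agonist screen; HEK293 cells with Gal4-LXR fusion and GAL4-driven luciferase reporter; agonist potency from rising luciferase signal of a Gal4-LXR reporter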
# Chain of Oxysterols receptor LXR-beta (P55055 whole entry, the tested form may be a part): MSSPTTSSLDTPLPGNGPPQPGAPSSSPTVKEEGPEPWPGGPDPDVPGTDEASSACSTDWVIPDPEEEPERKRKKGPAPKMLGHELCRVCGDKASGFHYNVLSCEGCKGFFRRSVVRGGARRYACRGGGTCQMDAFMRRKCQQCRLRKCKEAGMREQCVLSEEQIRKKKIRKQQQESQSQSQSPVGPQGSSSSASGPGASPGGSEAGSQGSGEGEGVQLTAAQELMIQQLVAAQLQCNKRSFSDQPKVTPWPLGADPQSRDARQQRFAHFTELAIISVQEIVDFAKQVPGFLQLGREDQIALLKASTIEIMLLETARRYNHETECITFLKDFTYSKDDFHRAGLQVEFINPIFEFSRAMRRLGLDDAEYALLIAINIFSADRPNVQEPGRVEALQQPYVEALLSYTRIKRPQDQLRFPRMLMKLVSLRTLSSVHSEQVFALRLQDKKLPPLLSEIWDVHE
# [16] = OVCAR-3 cell viability loss – plate reader, dry powder samples, PAX8 inhibitor project, dose response (AID 743044); type: functional, cell-based
# Paired box protein Pax-8 = Paired box protein Pax-8 (Homo sapiens, UniProt Q06710); test: PAX8 transcriptional activity inhibition in RMG-I – RMG-I cells, luciferase, cherry-pick, dose response (AID 687027); type: functional, cell-based;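 note: luciferase reporter driven by Pax8 target thyroperoxidase promoter measured by SteadyGlo luminescence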
# Chain of Paired box protein Pax-8 (Q06710 whole entry): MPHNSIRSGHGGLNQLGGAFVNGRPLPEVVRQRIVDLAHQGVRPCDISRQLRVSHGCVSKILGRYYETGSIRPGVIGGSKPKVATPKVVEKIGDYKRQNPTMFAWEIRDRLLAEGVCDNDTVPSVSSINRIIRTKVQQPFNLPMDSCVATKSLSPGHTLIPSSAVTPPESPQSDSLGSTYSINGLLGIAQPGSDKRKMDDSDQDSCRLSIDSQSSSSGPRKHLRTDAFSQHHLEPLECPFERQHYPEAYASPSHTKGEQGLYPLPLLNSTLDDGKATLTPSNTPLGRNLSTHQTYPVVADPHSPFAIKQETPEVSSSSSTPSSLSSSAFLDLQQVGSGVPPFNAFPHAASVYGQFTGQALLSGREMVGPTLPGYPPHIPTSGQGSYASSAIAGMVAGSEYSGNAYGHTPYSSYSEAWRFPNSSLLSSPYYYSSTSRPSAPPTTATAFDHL
# [17] = IGROV1 cell killing – plate reader, dry powder samples, PAX8 inhibitor project, dose response (AID 743043); type: functional, cell-based; details: IGROV-1
# [18] = OVCAR8 cell viability loss – plate reader, dry powder samples, PAX8 project, dose response (AID 743197); type: functional, cell-based; details: OVCAR-8
# [19] = toxicity toward immortalized ovarian surface epithelium – cell-based, plate reader, dry powder samples, cytotoxicity control for PAX8 inhibitor project, dose response (AID 743045); type: functional
# HEK293 = test: cells; type: functional, cell-based; details: Homo sapiens
# [20] = biological target: FAD-linked sulfhydryl oxidase ALR (Homo sapiens, UniProt P55789); test: ALR-catalysed DTT oxidation blockers – biochemical, H2O2 detection, luminescence, cherry-pick, dose response (AID 493248)
# Chain of FAD-linked sulfhydryl oxidase ALR (P55789 whole entry): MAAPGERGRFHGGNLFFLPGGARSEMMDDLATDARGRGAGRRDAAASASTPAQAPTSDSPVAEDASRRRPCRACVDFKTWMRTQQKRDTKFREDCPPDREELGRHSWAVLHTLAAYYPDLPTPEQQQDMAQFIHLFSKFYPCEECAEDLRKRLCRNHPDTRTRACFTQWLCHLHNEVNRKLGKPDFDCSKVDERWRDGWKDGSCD
# [21] = biological target: T5, Nuclear receptor subfamily 0 group B member 1 (Homo sapiens, UniProt P51843); test: Luminescence-based cell-based high throughput dose response assay for inhibitors of the orphan nuclear receptor subfamily 0, group B, member 1 (DAX1; NR0B1). [Related pubchem assays (depositor defined):AID504766, AID504790]; type: functional
# T5 sequence (P51843 whole entry): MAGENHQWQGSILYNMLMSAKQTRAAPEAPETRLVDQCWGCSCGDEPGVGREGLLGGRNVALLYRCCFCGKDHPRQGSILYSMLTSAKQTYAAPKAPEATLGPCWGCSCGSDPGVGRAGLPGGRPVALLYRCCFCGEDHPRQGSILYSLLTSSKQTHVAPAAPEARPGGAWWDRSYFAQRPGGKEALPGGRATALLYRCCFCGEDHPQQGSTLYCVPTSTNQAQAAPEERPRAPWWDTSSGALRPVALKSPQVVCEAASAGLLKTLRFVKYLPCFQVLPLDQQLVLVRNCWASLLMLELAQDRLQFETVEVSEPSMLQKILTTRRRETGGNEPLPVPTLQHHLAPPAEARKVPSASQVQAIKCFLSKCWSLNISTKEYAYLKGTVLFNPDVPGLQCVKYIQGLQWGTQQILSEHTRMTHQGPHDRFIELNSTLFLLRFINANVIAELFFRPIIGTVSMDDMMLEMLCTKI
# [22] = cytotoxicity in MITF-independent A375 cells – cell-based, CellTiter-Glo luminescence, dry powder, set 4, counter-screen for MITF inhibitor project, dose response (AID 624364); type: functional; details: A-375;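 note: A375 melanoma cells are MITF independent so this is a counter screen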
# [23] = viability loss in MITF-independent A375 cells – cell-based, CellTiter-Glo luminescence, dry powder, set 2, counter-screen for MITF inhibitor project, dose response (AID 624489); type: functional; details: A-375;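 note: actives are compounds lowering A375 viability meaning general cytotoxicity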
structure (smiles),measurement,setting,value
OC(COC(c1ccc(F)cc1)c1ccc(F)cc1)CN1CCCC(C(F)(F)F)C1 (stereo unspecified),IC50,[1],8.46 µM (active)
same,EC50,cells [2],> 29.9 µM (inactive)
same,IC50,cells [3],> 29.9 µM (inactive)
same,EC50,[4],2.52 µM (active)
CCOC(=O)C1CCN(C(=O)c2cc3c(ccc4ccccc43)o2)CC1,IC50,Beta-galactosidase [5],> 80 µM (inactive)
NS(=O)(=O)c1ccc(CCNC(=O)C2CCC(CNS(=O)(=O)c3ccc(Br)s3)CC2)cc1 (stereo unspecified),IC50,[1],1.16 µM (active)
same,EC50,cells [2],> 29.9 µM (inactive)
same,IC50,cells [3],> 29.9 µM (inactive)
same,EC50,[4],> 29.9 µM (inactive)
Cc1cc(C)c(OCCCNCc2ccccc2)c(Br)c1,IC50,[6],> 96.6 µM (inactive)
CN1C(=O)c2ccccc2N(C)C1c1ccc2c(c1)OCO2 (stereo unspecified),EC50,Kallikrein-7,> 69.5 µM (inactive)
O=C(CCCN1C(=O)/C(=C/c2cccs2)SC1=S)NNC(=O)c1ccccc1O,IC50,Albumin,> 94.1 µM (inactive)
CN(C)CCn1c2ccccc2c2nc3ccc([N+](=O)[O-])cc3cc21,AC50,[7],2.35 µM (active)
same,AC50,[8],55.7 µM (active)
Cc1ccc(C(=O)CNc2ccc(Br)cc2)cc1,IC50,Beta-galactosidase [5],> 80 µM (inactive)
same,IC50,[9],7.47 µM (active)
same,EC50,Beta-galactosidase [10],> 40 µM (inactive)
CCN1CCN(c2ccc(S(=O)(=O)N3CCCCC3)cc2NC(=O)/C=C/c2ccc([N+](=O)[O-])cc2)CC1,EC50,[11],> 91.2 µM (inactive)
same,AC50,[12],7.51 µM (active)
same,EC50,[13],> 91.2 µM (inactive)
NS(=O)(=O)c1ccc(S(=O)(=O)N(CCc2ccccc2)Cc2ccccn2)cc1,AC50,[8],< 0.0235 µM (active)
Clc1ccccc1NN=Cc1ccccn1,EC50,cells [14],> 67.6 µM (inactive)
same,EC50,[15],> 67.6 µM (inactive)
C[C@@H]1CCCCO[C@H](CN(C)C(=O)Nc2ccc(C(F)(F)F)cc2)[C@@H](C)CN([C@@H](C)CO)C(=O)c2cc(NS(=O)(=O)c3ccc(Cl)cc3)ccc2O1,AC50,[16],29.1 µM (active)
same,AC50,Paired box protein Pax-8,3.44 µM (active)
same,AC50,[17],46.1 µM (active)
same,AC50,[18],36.2 µM (active)
COc1ccc(-c2ccc3c(c2)[C@H]2[C@H](CCN2S(=O)(=O)c2ccc(OC)cc2)[C@@H](CO)N3C)cc1,AC50,[16],15.6 µM (active)
same,AC50,Paired box protein Pax-8,9.39 µM (active)
same,AC50,[18],34.7 µM (active)
same,AC50,[19],38.1 µM (active)
Cc1ccc(N/N=C(\C#N)C(=N)N2CCCCC2)cc1,EC50,cells [14],> 67.6 µM (inactive)
same,IC50,HEK293,> 0.278 µM (active)
same,AC50,[20],0.228 µM (active)
same,IC50,[21],> 67.5 µM (inactive)
same,EC50,[15],> 67.6 µM (inactive)
C=CCNC1=C(N2CCCCC2)C(=O)c2ccccc2C1=O,AC50,[22],29.1 µM (active)
same,AC50,[23],5.82 µM (active)
COc1cccc2cccc(/C=N/n3cnnc3)c12,EC50,Kallikrein-7,> 69.5 µM (inactive)
COc1cccc(-c2cc(C(=O)NC3=C(Cl)C(=O)c4ccccc4C3=O)ccc2OC)c1,AC50,[22],> 70 µM (inactive)
same,AC50,[23],> 70 µM (inactive)
